In PubChem BioAssay (NCI):
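Five concentrations, 48 hours, 96-well plates. TGI: total growth inhibition.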

How the values were obtained:
Test in all cases: growth of human tumour cells (NCI), 48 h
[1] = system: UO-31 renal
[2] = system: ACHN renal
[3] = system: SK-MEL-28 melanoma
[4] = system: U251 CNS
[5] = system: LOX IMVI melanoma
[6] = system: SK-MEL-5 melanoma
[7] = system: OVCAR-4 ovarian
[8] = system: OVCAR-8 ovarian
[9] = system: HOP-92 NSCLC
[10] = system: NCI-H522 lung
[11] = system: HT29 colon
[12] = system: UACC-257 melanoma
[13] = system: MCF7 breast
[14] = system: MOLT-4 leukemia
[15] = system: KM12 colon
[16] = system: TK-10 renal
[17] = system: HCT-15 colon
[18] = system: HL-60(TB) leukemia
[19] = system: EKVX NSCLC
[20] = system: OVCAR-5 ovarian
[21] = system: SW-620 colon
[22] = system: MDA-MB-435
[23] = system: SF-539 CNS
[24] = system: CAKI-1 renal
[25] = system: SR leukemia
[26] = system: CCRF-CEM leukemia
[27] = system: NCI-H226 lung
[28] = system: SNB-19 CNS
[29] = system: SN12C renal
[30] = system: NCI-H460 lung
[31] = system: SF-268 CNS
[32] = system: SNB-75 CNS
[33] = system: MDA-MB-231 breast
[34] = system: UACC-62 melanoma
[35] = system: SF-295 CNS
[36] = system: SK-MEL-2 melanoma
[37] = system: SK-OV-3 ovarian
[38] = system: DU-145 prostate
[39] = system: COLO 205 colon
[40] = system: NCI-H23 lung
[41] = system: A549 NSCLC
[42] = system: PC-3 prostate
[43] = system: BT-549 breast
[44] = system: RPMI-8226 leukemia
[45] = system: MDA-N
[46] = system: HS 578T breast
[47] = system: 786-0 renal
[48] = system: NCI/ADR-RES ovarian
[49] = system: K-562 leukemia
[50] = system: HCT-116 colon
[51] = system: M14 melanoma
[52] = system: OVCAR-3 ovarian
[53] = system: HCC-2998 colon
[54] = system: MALME-3M melanoma
[55] = system: T-47D breast
[56] = system: IGROV1 ovarian
[57] = system: HOP-62 NSCLC
[58] = system: A498 renal

## C/C(=N\NC(=O)Nc1ccccc1Cl)c1ccc(O)cc1
[1]
  TGI: > 100 µM
[2]
  TGI: > 100 µM
[3]
  TGI: > 100 µM
[4]
  TGI: > 100 µM
[5]
  TGI: > 100 µM
[6]
  TGI: > 100 µM
[7]
  TGI: > 100 µM
[8]
  TGI: > 100 µM
[9]
  TGI: > 100 µM
[10]
  TGI: > 100 µM
[11]
  TGI: > 100 µM
[12]
  TGI: > 100 µM
[13]
  TGI: > 100 µM
[14]
  TGI: > 100 µM
[15]
  TGI: > 100 µM
[16]
  TGI: > 100 µM
[17]
  TGI: > 100 µM
[18]
  TGI: > 100 µM
[19]
  TGI: > 100 µM
[20]
  TGI: > 100 µM
[21]
  TGI: > 100 µM
[22]
  TGI: > 100 µM
[23]
  TGI: > 100 µM
[24]
  TGI: > 100 µM
[25]
  TGI: > 100 µM
[26]
  TGI: > 100 µM
[27]
  TGI: > 100 µM
[28]
  TGI: > 100 µM
[29]
  TGI: > 100 µM
[30]
  TGI: > 100 µM
[31]
  TGI: > 100 µM
[32]
  TGI: 75.8 µM
[33]
  TGI: > 100 µM
[34]
  TGI: > 100 µM
[35]
  TGI: > 100 µM
[36]
  TGI: > 100 µM
[37]
  TGI: > 100 µM
[38]
  TGI: > 100 µM
[39]
  TGI: > 100 µM
[40]
  TGI: > 100 µM
[41]
  TGI: > 100 µM
[42]
  TGI: > 100 µM
[43]
  TGI: > 100 µM
[44]
  TGI: > 100 µM
[45]
  TGI: > 100 µM
[46]
  TGI: > 100 µM
[47]
  TGI: > 100 µM
[48]
  TGI: > 100 µM
[49]
  TGI: > 100 µM
[50]
  TGI: > 100 µM
[51]
  TGI: > 100 µM
[52]
  TGI: > 100 µM
[53]
  TGI: > 100 µM
[54]
  TGI: > 100 µM
[55]
  TGI: > 100 µM
[56]
  TGI: > 100 µM

## C=C1CC(Cn2ccc(=O)[nH]c2=O)(c2ccc(OC)cc2)OC1=O (stereo not drawn)
[1]
  TGI: 31.7 µM
[2]
  TGI: 33 µM
[3]
  TGI: 33 µM
[4]
  TGI: 53.4 µM
[5]
  TGI: 27.8 µM
[6]
  TGI: 26.8 µM
[7]
  TGI: 35.1 µM
[8]
  TGI: 46.8 µM
[9]
  TGI: 4.58 µM
[10]
  TGI: 4.4 µM
[11]
  TGI: 31.2 µM
[12]
  TGI: 35.3 µM
[13]
  TGI: 16 µM
[14]
  TGI: 8.25 µM
[15]
  TGI: 35.5 µM
[16]
  TGI: 25.2 µM
[17]
  TGI: 31.5 µM
[18]
  TGI: 7.45 µM
[19]
  TGI: 41.5 µM
[20]
  TGI: 32.2 µM
[21]
  TGI: 16.1 µM
[22]
  TGI: 30.8 µM
[23]
  TGI: 41.2 µM
[24]
  TGI: 19.6 µM
[25]
  TGI: 10.5 µM
[26]
  TGI: 10.4 µM
[27]
  TGI: 39.3 µM
[57]
  TGI: > 100 µM
[28]
  TGI: > 100 µM
[29]
  TGI: 19 µM
[30]
  TGI: > 67.6 µM
[31]
  TGI: 51.1 µM
[33]
  TGI: 33.2 µM
[34]
  TGI: 27.9 µM
[35]
  TGI: > 100 µM
[36]
  TGI: 27.1 µM
[37]
  TGI: > 92.9 µM
[38]
  TGI: 31.3 µM
[39]
  TGI: 14.5 µM
[40]
  TGI: 29.2 µM
[41]
  TGI: 59.2 µM
[42]
  TGI: 30.6 µM
[43]
  TGI: 24.6 µM
[44]
  TGI: 12 µM
[45]
  TGI: 28 µM
[46]
  TGI: 56.9 µM
[47]
  TGI: 25.2 µM
[48]
  TGI: 38.9 µM
[49]
  TGI: 16 µM
[50]
  TGI: 20 µM
[58]
  TGI: 31.6 µM
[51]
  TGI: 21.2 µM
[52]
  TGI: 36.1 µM
[53]
  TGI: 17.5 µM
[54]
  TGI: 27 µM
[55]
  TGI: 39.8 µM
[56]
  TGI: 31.6 µM
